Source: patent US20150212087A1, “Detection of the ERalpha/Src/PI3K Complex as Predictive Marker in Breast Cancer” (Centre Leon Berard, priority 2012, published 2015)

How the values were obtained:
[1] = system: ERα/PI3K interaction; experiment: In situ Proximity Ligation Assay (PLA) detection of ERα/PI3K interaction in MCF-7 cells; type: cell-based, human; settings: upon treatment
Text: (§1) Castoria et al. reported that estrogen rapidly triggers the interaction of ERα with Src and PI3K in MCF-7 cells, forming a complex involved in estrogen nongenomic-induced cell proliferation. […] Therefore the physiological relevance of this signaling pathway remains questionable. To date, immuno fluorescence analysis of the complex has been impeded by the fact that only a small population of ERα interacts with Src and PI3K. To circumvent this problem, we used a newly developed technique, the Proximity Ligation Assay. […] We investigated the ERα/PI3K interaction in the human breast tumor cell line MCF-7, using a rabbit anti-ERα together with a mouse anti-p85 antibody. The ERα/Src interaction was detected using the same anti-ERα together with a mouse anti-Src antibody. […] No dots were detected using only one antibody as confirmed by counting dots per 100 cells (FIG. 1, around 50 dots/cell versus less than 5). Importantly, the number of red dots increased after 5 min of estrogenic treatment then decreased after 15 min. This confirmed that upon estrogenic treatment, the formation of this complex is rapid and transitory (FIG. 2:)). […] They were detected exclusively in the […] of MCF-7 cells, as expected. […]

[2] = system: ERα/Src interaction; experiment: In situ Proximity Ligation Assay (PLA) detection of ERα/Src interaction in MCF-7 cells; type: cell-based, human; settings: upon treatment
Text: as §1

For `Cc1ccc(-c2nn(C(C)(C)C)c3ncnc(N)c23)cc1` [PP1], the “ERα/PI3K interaction (red dots) by PLA” value [1] was “significant decrease of red dots” and the “ERα/Src interaction (red dots) by PLA” value [2] was “significant decrease of red dots”.
For `CC/C(=C(\c1ccccc1)c1ccc(OCCN(C)C)cc1)c1ccccc1` [tamoxifen], the “ERα/PI3K interaction (red dots) by PLA” value [1] was “decrease” and the “ERα/Src interaction (red dots) by PLA” value [2] was “decrease”.
